Test results from ChEMBL document CHEMBL4706668, “Minimization of apoptosis-inducing CPP-Bim peptide” (Bioorg Med Chem Lett, 2021).
Activity calls are given as the source filed them. The calls are words filed in the database; no cut-off is given here. Residues, ends and D or L forms follow the SMILES beside them.

Experiments:
HeLa [1] = test: Induction of apoptosis in human HeLa cells at 10 uM incubated for 3 hrs followed by compound washout by NucView-488 staining based fluorescence microscopy; format: functional, cell-based
CHO [2] = test: Induction of apoptosis in CHO cells at 10 uM incubated for 3 hrs followed by compound washout by NucView-488 staining based fluorescence microscopy; format: cell-based, Cricetulus griseus; details: chinese hamster
[3] = Drug distribution in cytosol of human HeLa cells at 2 uM incubated for 3 hrs followed by compound washout and subsequent irradiation with mercury lamp at 10J/cm2 using Alexa Fluor-546 labeled compound by fluorescence microscopy; format: ADME, subcellular
HeLa [4] = test: Induction of apoptosis in human HeLa cells at 10 uM incubated for 3 hrs followed by compound washout by NucView-488 staining based fluorescence microscopy relative to control; format: functional
CHO [5] = test: Induction of apoptosis in CHO cells at 10 uM incubated for 3 hrs followed by compound washout by NucView-488 staining based fluorescence microscopy relative to control; format: cell-based, Cricetulus griseus; details: chinese hamster
HeLa [6] = test: Induction of apoptosis in human HeLa cells at 2 uM incubated for 3 hrs followed by compound washout and subsequent irradiation with mercury lamp at 10J/cm2 and further incubated for 3 hrs using Alexa Fluor-546 labeled compound by fluorescence microscopy; format: functional, cell-based

For CC[C@H](C)[C@H](NC(=O)[C@H](CCCNC(=N)N)NC(=O)[C@H](CCCNC(=N)N)NC(=O)[C@H](CC(C)C)NC(=O)[C@H](CCC(=O)O)NC(=O)[C@H](CS)NC(=O)[C@H](C)NC(=O)[C@@H](NC(=O)[C@H](Cc1c[nH]c2ccccc12)NC(=O)[C@@H](NC(=O)[C@H](CCCNC(=N)N)NC(=O)[C@H](CCCNC(=N)N)NC(=O)[C@H](CCCNC(=N)N)NC(=O)[C@@H](N)CCCNC(=N)N)[C@@H](C)CC)[C@@H](C)CC)C(=O)NCC(=O)N[C@@H](CC(=O)O)C(=O)N[C@@H](CCC(=O)O)C(=O)N[C@@H](Cc1ccccc1)C(=O)N[C@@H](CC(N)=O)C(=O)N[C@@H](C)C(=O)N[C@@H](Cc1ccc(O)cc1)C(=O)N[C@@H](Cc1ccc(O)cc1)C(=O)NCC(=O)N[C@@H](CS)C(=O)O (H-RRRRIWIACELRRIGDEFNAYYGC-OH), the Activity (HeLa [1]) was “inactive” and the Activity (CHO [2]) was “Not Active”.

In the case of H-RKKRRQRRRAQELRRIGDEFNAYYARGC-OH, the Activity (HeLa [1]) is reported as “inactive”.

With H-RKKRRQRRREIWIAQELRRIGC-OH the Activity (HeLa [1]) was “inactive”.

For H-RKKRRQRRREIWIAQELRRIGDEFGC-OH, the Activity (HeLa [1]) was “inactive”.

For H-RKKRRQRRREIWIAQELRRIGDEFNAGC-OH, the Activity (HeLa [1]) was “inactive”.

With H-RKKRRQRRREIWIAQELRRIGDEFNAYYARGC-OH the Drug uptake [3] was “Active”.

Work on H-RKKRRQRRREIWIAQELRRIGDEFNAYYGC-OH yielded an Activity (HeLa [4]) of 79% and an Activity (CHO [5]) of 44%.

In the case of H-RKKRRQRRREIWIAQELRRIGDGC-OH, the Activity (HeLa [1]) is reported as “inactive”.

In the case of H-RKKRRQRRRIAQELRRIGDEFNAYYARGC-OH, the Activity (HeLa [1]) is reported as “inactive”.

With H-RKKRRQRRRIWIAQELRRIGDEFNAYYARGC-OH the Activity (HeLa [4]) was 85% and the Activity (CHO [5]) was 31%.

With H-RKKRRQRRRIWIAQELRRIGDEFNAYYGC-OH the Drug uptake [3] was “Active” and the Activity (HeLa [6]) was “Active”.

In the case of H-RKKRRQRRRWGC-OH, the Activity (HeLa [6]) is reported as “inactive”.

In the case of H-RKKRRQRRRWIAQELRRIGDEFNAYYARGC-OH, the Activity (HeLa [1]) is reported as “Active”.

For H-RKKRRQRRRWIAQELRRIGDGC-OH, the Activity (HeLa [1]) was “Active”.

With H-RRIWIAQELRRIGDEFNAYYGC-OH the Activity (HeLa [1]) was “inactive” and the Activity (CHO [2]) was “Not Active”.

In the case of H-RRRRRRIWIAQELRRIGDEFNAYYGC-OH, the Activity (HeLa [1]) is reported as “inactive” and the Activity (CHO [2]) is reported as “Not Active”.

With H-RRRRRRRRIWIAQELRRIGDEFNAYYGC-OH the Activity (HeLa [4]) was 70%, the Activity (HeLa [1]) was “Active” and the Drug uptake [3] was “Active”. The Activity (HeLa [6]) was “Active”.
